Test results published in publication PMC3501554 (Drug and alcohol dependence, 2012).

Assays:
[1] = test system: C57BL/6J mice; experiment: Observable effects; type: in vivo; details: Rimonabant (3 mg/kg s.c., 10 min before) / 50 mg placebo smoke
[2] = following inhalation of 200 mg incinerated marijuana; ref Wilson et al., 2006; cited from earlier work

Compound	Hyperreflexia, percentage of mice showing presence of observable effect [1] [%]	Ptosis, percentage of mice showing presence of observable effect [1] [%]	Straub Tail, percentage of mice showing presence of observable effect [1] [%]	Brain concentration of THC [2] [ng/g]
Cc1c(C(=O)NN2CCCCC2)nn(-c2ccc(Cl)cc2Cl)c1-c1ccc(Cl)cc1 [Rimonabant]	0	0	0	
CCCCCc1cc(O)c2c(c1)OC(C)(C)[C@@H]1CCC(C)=C[C@@H]21 [THC, Δ^9-tetrahydrocannabinol]				433 ± 66
